Experimental data reported in patent US20090325202A1, “Methods for Developing and Assessing Therapeutic Agents” (priority 2006, published 2009).

Legend:
ERK1/2 [1] = assay: Phospho-/total ERK1/2 ELISA in EGF-stimulated T-47D cell smears; format: cell-based, human; conditions: T-47D cells, AG1478 0.5 uM, PD98059 20 uM
Protocol: T47D cells were maintained in Dulbecco's modified Eagle's medium (Life Technologies, Inc.) supplemented with 10% fetal calf serum and antibiotics (Life Technologies, Inc.). Prior to EGF (Sigma) stimulation, cells were starved for 24 h in serum-free medium.
(§1) Total cell lysates were obtained from either cells cultured in vitro or from tumor FNAB samples. Protein extracts were resolved by 4-15% SDS-PAGE and probed with Rabbit anti-EGFR, anti-phospbo-EGFR, anti-ERK1 and anti-phospho-ERK antibodies obtained from New England Biolabs (Beverly, Mass.). Immunoreactive proteins were visualized by enhanced chemiluminescence (Amersham International, United Kingdom). Total and phospho-ERK1/2 proteins were quantified by sandwich [LISA kits (BioSource International, Camarillo, Calif., USA) as described in the manufacturer's protocols. The reaction was read at 450 nm in an ELISA plate reader.
Western blot analysis of protein samples is a conventional method for phosphoprotein analysis. However, Western blot analysis is limited in throughput and quantitative precision, and also requires large sample amounts. […] Therefore, it was tested if quantitative ELISA assays can be applied to cytologic samples to increase the assay sensitivity to measure the expression levels and activation status of specific signaling pathways. […]

AKT = assay: Ex vivo treatment of human breast cancer cells obtained by FNAB, AKT phosphorylation; format: cell-based; conditions: 3 hours, AG1478 0.5 uM, LY294002 10 uM
Protocol: (§2) To obtain cancer cells cancer tumor tissue was sampled four times with a sterile 25G short needle and tumor samples were immediately transferred into 10 ml sterile prewarmed complete RPMI-1640 culture medium containing 10% fetal calf serum, penicillin (200 ug/ml) and streptomycin (200 ug/nil). After centrifugation and cells were resuspended and distributed in 6-well microculture plates and treated in duplicates with vehicle alone (DMSO control), an EGFR inhibitor AG1478 (0.5 uM) (Calbiochem, 658548), a MEK/ERK inhibitor PD98059 (20 uM) (Biosource International, PHZ 1164) or with a PI3K/AKT inhibitor LY294002 (10 uM) (Biosource International, PHZI 144) in a humidified 5% CO2 incubator at 37° C. for 3 hours.
(§3) Following treatment nonadherent and adherent cells (collected by scraping) were pooled together in a 1.5 ml microcentrifuge tube and centrifuged at 500×g for 5 min at 4° C. After washing with PBS, cells were lysed in 100 μl of ice-cold lysis buffer and therapy-induced changes n the expression and phosphorylation levels of AKT and ERK1/2 were detected by Western blot.

ERK1/2 [2] = assay: Ex vivo treatment of human breast cancer cells obtained by FNAB, ERK1/2 phosphorylation; format: cell-based; conditions: 3 hours, AG1478 0.5 uM, PD98059 20 uM
Protocol: as §2, §3

ERK1/2 [3] = assay: Panc 265 xenograft FNAB cells treated ex vivo, ERK1/2 phosphorylation; format: cell-based, human; conditions: Panc 265 FNAB cells; ZD1839 5 uM; 6 hours
Protocol: (§4) To obtain cancer cells, each animal tumor was sampled as described above. After collection of tumor FNAB samples, xenograft animals were subsequently treated with ZD1839 or CCI-779 for 28 days and tumor volumes were determined as described above. At day 7 of therapy, AD/DQ slides were prepared from tumor FNAB samples to retrospectively correlate the results of in vivo and ex vivo chemosentitivty tests from the same xenograft animal.
To determine viability of tumor cells obtained by FNAB, trypan blue dye exclusion assay was performed. The viability of tumor cells obtained by tumor FNAB from control animals was over 95%. Approximately 75,000 tumor cells were seeded into each well of a 6-well polypropylene microplate. Cells were treated in duplicates with vehicle (control) or with ZD1839 (5 uM) or CCI-779 (1 uM) in a humidified 5% CO2 incubator at 37° C. for different periods to determine the optimal treatment time to analyze drug effects.
(§5) After the treatment cells were collected, protein extracts were prepared and Western blot analysis was performed as described above. The ex vivo effect of ZD 1839 and CCI-779 on phosphorylation of ERK1/2 or S6 ribosomal proteins, respectively, was correlated with the in vivo data gathered from the FNAB smears prepared at day 7 of treatment.

ERK1/2 [4] = assay: HuCCT-1 xenograft tumor FNAB Western blot, ERK1/2 activity; format: in vivo, human; conditions: in vivo
Protocol: (§6) Four to 6-week-old female athymic (nu+/nu+) mice were purchased from Harlan (Harlan Laboratories, Washington, D.C.). The research protocol was approved by the Johns Hopkins University Animal Care Committee and animals were maintained in accordance with the guidelines of the American Association of Laboratory Animal Care. […] Mice were monitored daily for signs of toxicity and were weighed three times per week. Tumor size was evaluated three times per week by caliper measurements using the following formula: tumor volume=[length×width^2]/2. Tumor growth inhibition was calculated by tumor volume of treated mice divided by tumor volume of control mice. Experiments were terminated on day 14.
Fine needle aspirates were obtained with a 25G needle and 10 ml syringe, passing the needle through the tumor 10 times with application of 1-2 ml suction The aspirated material was expressed onto clear glass slides and smeared. All smears were allowed to air dry and then stained with Diff-Quik stain (Baxter Healthcare, Miami, Fla.). Five to ten AD/DQ-stained cytological smears were prepared from each tumor sample. The cellular composition of each aspirate was assessed by cytopathologists.
as §1, with “Protein extracts were resolved by 4-15% SDS-PAGE and probed with Rabbit anti-EGFR, anti-phospbo-EGFR, anti-ERK1 and anti-phospho-ERK antibodies obtained from New England Biolabs (Beverly, Mass.).” left out
Next, whether FNAB samples obtained from tumor tissue at the early stage of therapy can be used to predict tumor response was examined. […] Expression and phosphorylation levels of ERK 1/2 were analyzed on Western blot by using extracts prepared from AD/DQ-stained FNAB samples.

HuCCT-1 tumors = assay: HuCCT-1 xenograft tumor growth; format: in vivo, athymic (nu+/nu+) mice; conditions: single agents: gefitinib 150 mg/Kg i.p. days 1-5 and 8-12, CI-1040 150 mg/Kg twice a day oral days 1-14
Protocol: as §6
To explore the feasibility of implementing this method in in vivo studies, mouse xenografts were next employed to test whether FNAB material obtained from tumor tissue can be utilized to monitor and predict therapy response in vivo. For this purpose HuCCT-1 cholangiocarcinoma cells were used to create a xenograft mouse model of human cholangiocarcinoma. […] Tumor volumes were measured and compared with tumors from animals that received drug vehicle alone.

ERK1/2 [5] = assay: HuCCT-1 xenograft tumor FNAB phospho-/total ERK1/2 ELISA; format: in vivo, human
Protocol: as §6
as §1, with “Protein extracts were resolved by 4-15% SDS-PAGE and probed with Rabbit anti-EGFR, anti-phospbo-EGFR, anti-ERK1 and anti-phospho-ERK antibodies obtained from New England Biolabs (Beverly, Mass.).” left out
Western blot analysis of protein samples is a conventional method for phosphoprotein analysis, but is limited in throughput, quantitative precision and requires large sample amounts. ELISA assays offer alternatives to Western blot with higher throughput and increased sensitivity. […] For this purpose the tumor FNAB samples, which have been analyzed on Western blot above (FIG. 16A), were used to assess the expression and phosphorylation of ERK1/2 proteins by the total and phospho-specific ERK1/2 ELISA assays, respectively.
The amounts of phosphorylated ERK1/2 were normalized for the total contents of these proteins in each sample group and therapy-mediated changes in their phosphorylation status were quantified.

ERK1/2 [6] = assay: Panc 265 xenograft in vivo FNAB smears, ERK1/2 activity; parameters: species or system human; conditions: ZD1839 150 mg/Kg daily i.p., FNAB day 7
Protocol: Animals were either untreated or treated with ZD1839: 150 mg/Kg daily or CCI-779: 20 mg/kg days 1-5 by intraperitoneal injection
as §4, §5

Row | SMILES | inhibition of EGF-induced ERK1/2 phosphorylation (phospho-ELISA normalized for total ERK1/2) (ERK1/2 [1]) | phosphorylation of AKT (AKT) | phosphorylation of ERK1/2 (ERK1/2 [2]) | ERK1/2 phosphorylation ex vivo (ERK1/2 [3]) | ERK1/2 activity, serial FNAB sampling (ERK1/2 [4]) | decrease in tumor volume (HuCCT-1 tumors) | phosphorylation levels of ERK1/2 by phospho-ERK1/2 ELISA (raw data) (ERK1/2 [5]; HuCCT-1 tumor FNAB samples of treated animals) | increase of ERK1/2 phosphorylation (normalized for total ERK1/2) (ERK1/2 [5]; HuCCT-1 tumor FNAB, gefitinib alone) | ERK1/2 activity in vivo (ERK1/2 [6])
1 | COc1cc2ncnc(Nc3cccc(Cl)c3)c2cc1OC [AG1478] | 80% | reduced the phosphorylation of both ERK1/2 and AKT proteins | reduced the phosphorylation of both ERK1/2 and AKT proteins | – | – | – | – | – | –
2 | COc1cc2ncnc(Nc3ccc(F)c(Cl)c3)c2cc1OCCCN1CCOCC1 [gefitinib, Gefitinib] | – | – | – | failed to block ERK1/2 phosphorylation | neither of these agents alone caused inhibition | 4% | neither gefitinib nor CI-1040 treatment alone caused any significant change | 17% | failed to block ERK1/2 activity
